In ChEMBL document CHEMBL5154710, “Discovery of small molecules interacting at lactate dehydrogenases tetrameric interface using a biophysical screening cascade” (Eur J Med Chem, 2022):

Experiments:
[1] = Stabilization of Red-dye-NHS fluorescent-labeled human LDH-Htr expressed in Escherichia coli assessed as dissociation constant by MST assay
[2] = Destabilization of Red-dye-NHS fluorescent-labeled human LDH-5 expressed in Escherichia coli assessed as dissociation constant by MST assay
[3] = Destabilization of Red-dye-NHS fluorescent-labeled human LDH-1 expressed in Escherichia coli assessed as dissociation constant by MST assay
Homo sapiens [4] = organism: Homo sapiens; assay: Stabilization of human LDH-Htr expressed in Escherichia coli assessed as change in melting temperature at 1 mM heated for 3 mins by NanoDSF assay
Homo sapiens [5] = organism: Homo sapiens; assay: Destabilization of human LDH-5 expressed in Escherichia coli assessed as change in melting temperature at 1 mM heated for 3 mins by NanoDSF assay
Homo sapiens [6] = organism: Homo sapiens; assay: Destabilization of human LDH-1expressed in Escherichia coli assessed as change in melting temperature at 1 mM heated for 3 mins by NanoDSF assay
Homo sapiens [7] = organism: Homo sapiens; assay: Displacement of macro-cycle 7 from human LDH-Htr expressed in Escherichia coli assessed as decay in saturation transfer at 100 uM by saturation transfer difference-1H NMR analysis
[8] = Inhibition of LDH-5 (unknown origin) assessed as denaturation of LDH-5 using NADH and pyruvate as substrate by spectrophotometric analysis; parameters: species or system Homo sapiens

Nc1nc2ccccc2n1Cc1ccc(F)cc1
Kd [1]: 183 µM | Kd [2]: 324 µM | Kd [3]: 48 µM | ΔTm (Homo sapiens [4]): 0.8 °C | ΔTm (Homo sapiens [5]): -2.6 °C | ΔTm (Homo sapiens [6]): 0.4 °C

CNCCCC12CCC(c3ccccc31)c1ccccc12
ΔTm (Homo sapiens [4]): 4.6 °C | ΔTm (Homo sapiens [5]): -2.7 °C | ΔTm (Homo sapiens [6]): -1.4 °C

O=C(O)c1cc(-c2ccc(F)cc2F)ccc1O [DIFLUNISAL]
Kd [1]: 1000 µM | Kd [2]: 343 µM | Kd [3]: 116 µM | ΔTm (Homo sapiens [4]): 3.1 °C | ΔTm (Homo sapiens [5]): -2.1 °C | ΔTm (Homo sapiens [6]): 0.1 °C

O=C(O)c1ccccc1Nc1cccc(C(F)(F)F)c1 [FLUFENAMIC ACID]
Kd [1]: 900 µM | Kd [3]: 1700 µM | ΔTm (Homo sapiens [4]): 1.9 °C | ΔTm (Homo sapiens [5]): -1.7 °C | ΔTm (Homo sapiens [6]): 0.4 °C

Cc1ccc(/C(=C\CN2CCCC2)c2ccccn2)cc1 [TRIPROLIDINE]
Activity (Homo sapiens [7]): 40% | IC50 [8]: 7.6 mM
